Results taken from patent publication US20160361391A1, “REDUCTION OF TRAF1 LEVELS COMBINED WITH NUTRIENT STRESS FOR TREATING LYMPHOCYTE-RELATED CANCERS” (THE GOVERNING COUNCIL OF THE UNIVERSITY OF TORONTO, priority 2014, published 2016).

How the values were obtained:
Format in all cases: cell-based, human
TRAF1 [1] = test: TRAF1 levels by Western blot after shRNA knockdown
Experimental: Left: RAJI cells were stably transfected with control small hairpin (sh) RNA or with shRNA designed to knockdown expression of TRAF1 (shRNAs obtained from Open Biosystems (TRC library number: TRCN0000056885 sequence: […]) (SEQ ID NO:1)). TRAF1 levels in RAJI expressing shCtrl or with shTRAF1 were analyzed by Western blot. Protein loading was analyzed based on GAPDH levels. Right: TRAF1 levels in B-chronic lymphocytic leukemia (CLL) lines and Daudi CD5+ (a Burkitt's lymphoma with CLL like properties) were determined by Western blot.
Left: Schematic diagram of TRAF1 indicating site of phosphorylation by PKN1 as identified by Kato et al.^29 Middle: RAJI cells were stably transfected with control shRNA (shCtrl), TRAF1 shRNA (shTRAF1) or PKN1 shRNA (shPKN1) (obtained from Open Biosystems (TRC library number: TRCN0000001484 sequence: […] (SEQ ID NO:2)). Right: Daudi cells were transduced with control shRNA (shCTRL), shRNA targeting TRAF1 (shTRAF1) or shRNA targeting PKN1 (shPKN1). Cells were analyzed for levels of TRAF1, tubulin or GAPDH by western blot. “Pool” refers to bulk transfected cell lines without subcloning.
Based on the finding that primary T cells lacking TRAF1 are sensitive to loss of TRAF2 when 4-1 BB signalling is induced during nutrient stress, the role of the reduction of TRAF1 levels combined with nutrient stress on B lymphomas was tested. […]

TRAF2 = TRAF2 levels by immunoblot during nutrient stress; settings: RAJI cells; for TRAF2 levels during Erwinase treatment: 1 IU/ml Erwinase, up to 6 hrs
Experimental: (B) Wild type (WT), shCtrl or shTRAF1 RAJI cells were treated with 1 IU/ml Erwinase for 1, 3 or 6 hrs and immunoblotted for TRAF2 and TRAF1.
Right: RAJI cells stably expressing shCtrl or shPKN1 were treated with 1 IU/ml Erwinase for 0, 3 or 6 hrs and lysates were immunoblotted for TRAF2, or as a loading control, GAPDH.
To test the effect of lower levels of TRAF1 on the level of TRAF2 in lymphoma, WT and shTRAF1 RAJI cells were incubated under conditions of nutrient stress (low glutamine). […] In order to mimic conditions of nutrient stress in a manner that can be useful therapeutically, the licensed drug Erwinase (described above) was utilized. […] Of note, in contrast to the work with primary cells, the loss of TRAF2 when TRAF1 is limiting occurred without a need to add reagents to specifically engage a TNFR family member, but rather occurs spontaneously upon nutrient stress.

RAJI cells [2] = test: MTT cell viability / growth assay; settings: for cell growth / proliferation with Erwinase (MTT) / tumour growth rate (MTT): RAJI; for cell growth / proliferation with Erwinase (MTT): 1 IU/ml Erwinase; for tumour growth rate (MTT): complete culture medium, no Erwinase
Experimental: MTT reagent was then solubilized with DMSO and absorbance was measured by ELISA plate reader at 560 nm and referenced to absorbance at 620 nm. Data are plotted as fold change relative to untreated shCtrl RAJI cells.
(§1) It was next asked what the effect of reducing TRAF1 and its signalling partner TRAF2 in lymphoma had on cell proliferation and survival. […] To determine whether this effect was due to death of the lymphoma cells, Annexin V and propidium iodide (PI) staining of the lymphomas were analyzed at different times after transfer to Erwinase containing medium. Annexin V binds to phosphatidyl serine, which becomes exposed on the surface of cells as they undergo apoptosis. Then, cells become permeable to propidium iodide upon death. […] The slightly greater effect on cell death of direct TRAF1 knockdown compared to PKN1 knockdown is consistent with the smaller effect of PKN1 knockdown on TRAF1 levels compared to direct TRAF1 knockdown with shTRAF1.
FIG. 7 provides a rationale for a screen for a PKN1 inhibitor that synergizes with Erwinase: In particular, the assay is used to look for inhibitors that act at nanomolar concentration to reduce cell survival. […] Inhibitors that reduce the signal in the MTT assay by at least 3 fold relative to Erwinase alone will be identified as potential PKN1 inhibitors. This initial screen is amenable to a 96 well plate assay in which each drug candidate is tested on control RAJI cells with and without Erwinase as well as shPKN1 RAJI cells with Erwinase. Candidate drugs that lower the signal on control RAJI cells only in the presence but not in the absence of Erwinase, and have no effect on PKN1 knockdown cells treated with Erwinase, represent candidates for kinase inhibitors that act through PKN1 inhibition to reduce TRAF1 levels. The candidates can then be verified by determining the inhibitory effects on TRAF1 levels.

RAJI cells [3] = test: Annexin V / propidium iodide cell death by flow cytometry, RAJI; settings: 1 IU/ml Erwinase
Experimental: RAJI cells stably expressing control shRNA (shCtrl), TRAF1 shRNA (shTRAF1) or PKN1 shRNA (shPKN1) were left untreated or treated with 1 IU/ml Erwinase for the indicated time points. For cells treated with Erwinase for longer than 24 hrs, cell culture media was replaced every 24 hrs and 1 IU/ml Erwinase was added to ensure the continued absence of glutamine. Cells were then stained with Annexin V-FITC (ebioscience) and Propidium Iodide (PI) and then analyzed by flow cytometry (BD LSR Fortessa). The upper right quadrant (Q2) indicates the fraction dead cells.
(§2) (A) Whole cell extracts from RAJI cells treated with control shRNA (shCTRL) or TRAF2 shRNA (shTRAF2) were immunoblotted for TRAF2 or as a loading control, GAPDH. (B) Annexin V staining of RAJI after Erwinase treatment (1 IU/ml; 24 hrs) in shCTRL, shTRAF1 or shTRAF2 cells.
as §1

[4] = test system: Chronic lymphocytic leukemia cell line MEC2; test: Annexin V / propidium iodide cell death by flow cytometry, MEC2; settings: MEC2, 1 IU/ml Erwinase, 0, 18, 24 or 42 hrs
Experimental: MEC2 cells were transfected with control shRNA (shCTRL), shTRAF1 or shPKN1 and then were left untreated or treated with 1 IU/ml Erwinase for 0, 18, 24 or 42 hrs. Cell death was measured by flow cytometry for Annexin V and propidium iodide (PI), where double staining for Annexin V and Propidium iodide (PI) is used to indicate cell death.

mTORC1 = test: pS6K / pS6 level as marker of mTORC1 activation; settings: RAJI lymphoma cells
Excerpt: Left: Levels of pS6K in RAJI control cells. Right: Levels of pS6K in RAJI shTRAF1. Upper panels show pS6K, lower panels show GAPDH to control for equal loading. B. Schematic showing link between nutrient stress, mTORC1 and pS6. C. Left: Representative flow cytometry analysis of TRAF1 and phospho-S6 expression in Raji shCTRL and Raji shTraf1 cells. […] FMO is fluorescence minus one control stain. Right: Correlation plot of TRAF1 versus phospho-S6 expression in lymphoma and CLL cell lines (gated on live cells). All flow cytometry is based on gating on live cells (using live/dead staining marker).
In an effort to understand the mechanism of synergy between lowering TRAF1 levels and increased sensitivity to Erwinase, the activity of mTORC1, a key sensor of the nutrient state of the cells, was examined. Nutrient stress inhibits the activation of mTORC1, a key regulator of proliferation, metabolism and cell survival.^35 PhosphoS6K (pS6K), a downstream target of mTORC1, can be used as a marker of mTORC1 activation. […] However, unexpectedly, TRAF1 knockdown cells had lower basal level of pS6K prior to treatment, perhaps explaining the synergistic effect of TRAF1 knockdown with Erwinase treatment (FIG. 11A—compare right to left western blots). […] Further, a correlation between the level of TRAF1 in the cell and the activity of mTORC1 as measured by pS6 levels was shown (FIG. 11C).

Erk and NF-κB activation = test: Flow cytometry for pERK and phospho P65 subunit of NFkB; settings: RAJI knockdown cells versus control sample
Excerpt: as §2
(§3) TRAF2 knockdown also decreases RAJI survival in the presence of Erwinase (FIG. 14). […] On the Y axis, is indicated knockdown of TRAF2, PKN1, TRAF1 or control sample. The vertical dashed line indicates the peak level of expression in the control sample for comparison with the knockdown cells.

TRAF1 [5] = test: TRAF1 levels by flow cytometry in knockdown RAJI; settings: RAJI knockdown cells versus control sample
Excerpt: as §2, §3

[6] = test system: panel of lymphoma and the CLL line MEC2; test: Erwinase sensitivity versus TRAF1 expression in cell line panel; settings: 1 IU/ml Erwinase, 24 hours; lines with medium/hi TRAF1 expression
Experimental: Correlation plot of TRAF1 expression versus Erwinase sensitivity. Cell lines were treated with 1 IU/ml Erwinase for 24 hours and cell death was measured by AnnexinV/PI staining. Erwinase sensitivity is measured as % of cells AnnexinV^+, PI^+ and/or AnnexinV^+/PI^+ cells. Left: Erwinase sensitivity versus TRAF1 expression (measured by flow cytometry, gated on live cells) for a panel of lymphoma and the CLL line MEC2.
PKN1 stabilizes TRAF1 and TRAF1 serine 146, a target of PKN1 is required for TRAF1 stability (see above). As lowering TRAF1 by PKN1 knockdown increases sensitivity to nutrient stress, knockdown of PKN1 with RNA interference or anti-sense approaches, or inhibition of PKN1 using chemical inhibitors could be used to increase sensitivity to nutrient stress. In order to develop this strategy, biomarker needs to be developed to predict which cancers would be susceptible. To this end, TRAF1 protein expression was measured in a panel of human lymphomas and the CLL cell line MEC2 by flow cytometry and these levels were correlated with sensitivity to the nutrient stress-inducing drug Erwinase. […] However, in cells that express TRAF1 above an MFI of 1500, there was a strong correlation between TRAF1 levels and resistance to cell death induced by nutrient stress (FIG. 13). Cancers with these properties are candidates for therapy with PKN1 in combination with nutrient stress.

shPKN1: shRNA targeting PKN1, sequence CTGATGTGTGAGAAGCGGA (Open Biosystems TRC library)
TRAF1 levels (TRAF1 [1]; RAJI and Daudi cells with shRNA to PKN1, versus shCtrl): decreases TRAF1 levels
TRAF2 levels during Erwinase treatment (TRAF2): sensitizes RAJI cells to TRAF2 loss during nutrient stress
cell growth / proliferation with Erwinase (MTT) (RAJI cells [2]): sensitizes lymphoma to growth inhibition by Erwinase
tumour growth rate (MTT) (RAJI cells [2]): no impact on the tumour growth rate
sensitivity to Erwinase induced death (Annexin V/PI) (RAJI cells [3]): Increases the Sensitivity of RAJI to Erwinase Induced Death
sensitivity to Erwinase induced death (Annexin V/PI) [4]: increases the sensitivity of the Chronic lymphocytic leukemia cell line MEC2 to Erwinase induced death

shTRAF1: shRNA designed to knockdown expression of TRAF1, sequence CGTGTGTTTGAGAACATTG (Open Biosystems TRC library)
TRAF1 levels (TRAF1 [1]; RAJI stably expressing shRNA, versus control treated RAJI): substantially lower levels of TRAF1
TRAF2 level under low glutamine (TRAF2; nutrient stress (low glutamine), versus WT): TRAF2 was lost
cell growth / proliferation with Erwinase (MTT) (RAJI cells [2]): sensitizes lymphoma to growth inhibition by Erwinase
tumour growth rate (MTT) (RAJI cells [2]): no impact on the tumour growth rate
sensitivity to Erwinase induced death (Annexin V/PI) (RAJI cells [3]): Increases the Sensitivity of RAJI to Erwinase Induced Death
sensitivity to Erwinase induced death (Annexin V/PI) [4]: increases the sensitivity of the Chronic lymphocytic leukemia cell line MEC2 to Erwinase induced death
level of pS6K / pS6 (mTORC1): levels of pS6 are lower
constitutive Erk and NF-κB activation (Erk and NF-κB activation): reduces constitutive Erk and NF-κB activation

shTRAF2: shRNA to TRAF2, mature antisense ATGGCGTGGAATCTGCAAGGG
sensitivity to Erwinase induced death (Annexin V/PI) (RAJI cells [3]): increased susceptibility to Erwinase-mediated nutrient stress
constitutive Erk and NF-κB activation (Erk and NF-κB activation): reduces constitutive Erk and NF-κB activation
TRAF1 levels (flow cytometry) (TRAF1 [5]): lowers TRAF1 levels

B1: Erwinase: Licensed drug derived from the Asparaginase of Erwinia chrysanthemi; nutrient stress-inducing agent (protein, UniProt P06608 22-348, looked up)
L-asparaginase: ADKLPNIVILATGGTIAGSAATGTQTTGYKAGALGVDTLINAVPEVKKLANVKGEQFSNMASENMTGDVVLKLSQRVNELLARDDVDGVVITHGTDTVEESAYFLHLTVKSDKPVVFVAAMRPATAISADGPMNLLEAVRVAGDKQSRGRGVMVVLNDRIGSARYITKTNASTLDTFKANEEGYLGVIIGNRIYYQNRIDKLHTTRSVFDVRGLTSLPKVDILYGYQDDPEYLYDAAIQHGVKGIVYAGMGAGSVSVRGIAGMRKAMEKGVVVIRSTRTGNGIVPPDEELPGLVSDSLNPAHARILLMLALTRTSDPKVIQEYFHTY
TRAF2 levels during Erwinase treatment (TRAF2): significant reduction in TRAF2 levels only when TRAF1 was reduced by shRNA
cell growth / proliferation with Erwinase (MTT) (RAJI cells [2]): arrest in cell growth
impact of Erwinase alone in MTT assay (RAJI cells [2]; control RAJI, 1 IU/ml, 48 hr): minimal impact
level of pS6K / pS6 (mTORC1): reduced the level of pS6K
Erwinase sensitivity (% AnnexinV+ and/or PI+ cells) versus TRAF1 expression [6]: inverse correlation between TRAF1 levels and Erwinase sensitivity
